This is an account of results in patent US5366992A, “Benzoic acid substituted derivatives having cardiovascular activity” (Italfarmaco S.p.A., priority 1990, dated 1994).

SMILES strings stand for the structures. Where a name gives a salt, the structure may show the parent alone.

The test system of experiment [1] is noradrenaline-contracted rat aortha strip. The experiment can be described thus: in vitro vasorelaxing activity, noradrenaline-contracted rat aortha strip. To be noted: concentration inhibiting by 50% the contraction of noradrenaline-contracted rat aortha strip. Here is the method: The in vitro vasorelaxing activity of the compounds of the present invention was evaluated in the test of the noradrenaline-contracted rat aortha strip. The test was carried out according to the procedure described by K. Murakami et al., Eur. J. Pharmacol., 141, 195, 1987. The IC50 values, i.e. the concentration of active substance, expressed in mol/1, inhibiting by 50% the aortha strip contraction, were evaluated.

Experiment [2] deals with Sprague Dawley anesthetized rats. Kind of experiment: in vivo antianginal activity, Arg-vasopressin-induced coronaric spasm (T wave increase) in anesthetized rats. The arrangement: species or system Sprague Dawley rat. To be noted: 3 mg/kg through gastric probe, one hour before i.v. Arg-vasopressin (1 I.U./kg). The method, then:
In vivo antianginal activity was evaluated in Sprague Dawley anesthetized rats of 350-400 g mean weight, according to the procedure by M. Leitold et al., Arzneim. Forsch. 36, 1454, 1986. The test was carried out by intravenously administering to the animal one I.U./kg (equivalent to 3 mg/kg) of Arg-vasoprexine inducing a choronaric spasm which can be reproduced and electrocardiographically evidenced by an increase in the T wave. The compounds of the invention were administered through a gastric probe at a dose of 3 mg/kg, one hour before administering Arg-vasoprexine.The antianginal effect was expressed as percent inhibition of the increase in T wave versus controls.

Turning to `CC(=O)Oc1cccc(C(=O)NCCCCCO[N+](=O)[O-])c1` [3 B], the IC50 (as a rule, the concentration that gives 50% inhibition) in experiment [1] is 1200 nM.
Molecule `CC(=O)Oc1ccccc1C(=O)NCCCCCO[N+](=O)[O-]` [4 B] displayed a 50% inhibitory concentration (IC50) in experiment [1] of 110 nM. In addition, the “% Inhibition of the increase in T waves versus controls” value (“% Inhibition of the increase” for short) in experiment [2] turned out to be 53%.
In turn, `CC(=O)Oc1ccccc1C(=O)OCCO[N+](=O)[O-]` [8 B] gave an IC50 in experiment [1] of 13 nM. The “% Inhibition of the increase” value in experiment [2] worked out at 61%.
Taken in the same sequence, the figures for `O=C(NCCO[N+](=O)[O-])c1ccccc1O` [9 A] were 160 nM and 42%.
In experiment [1], `CC(=O)Oc1cccc(C(=O)NCCO[N+](=O)[O-])c1` [Example 1, 3-Acetoxy-N-(2-nitroxyethyl)-benzamide] showed an IC50 of 160 nM.
Consider `CC(=O)Oc1ccc(C(=O)NCCO[N+](=O)[O-])cc1` [Example 2, 4-Acetoxy-N-(2-nitroxyethyl)-benzamide], for which the half-inhibitory concentration (IC50) in experiment [1] is 2300 nM. Moreover, the “% Inhibition of the increase” value in experiment [2] was found to be 55%.
Take `O=C(NCCO[N+](=O)[O-])c1ccccc1OC(=O)C1CSCN1` (centres unmarked) [Example 9, N-(2-Nitroxyethyl)-2-[(4-thiazolidinyl)carbonyloxy]benzamide hydrochloride]: half-maximal inhibition in experiment [1] (IC50) was put at 540 nM.
